Test results taken from PMC6657216, “Defining the Contribution of CYP1A1 and CYP1A2 to Drug Metabolism Using Humanized CYP1A1/1A2 and Cyp1a1/Cyp1a2 Knockout Mice” (Drug Metabolism and Disposition, 2019).
“And” between values parts separate entries of the source, which are not always exact repeats. Identical values can stand only once. Like-named read-outs stand apart in the source and are kept apart here. Marks after values point to notes of the source that are not given here. Each block holds one molecule with its values, some of them ahead of it.

Key:
in vivo = settings: whole blood, po, 5 mg/kg
Method: (§2) A separate experimental group consisted of mice with conditionally deleted hepatic P450 oxidoreductase ([Henderson et al., 2003]) [hepatic reductase null (HRN) mice]. Whole blood samples from WT and hCYP1A1/1A2 mice were collected at 12, 24, and 40 minutes and 1, 2, 3, 4, 6, and 8 hours after the administration. Whole blood samples from HRN and Cyp1a1/1a2 KO mice were collected at 12, 24, and 40 minutes and 1, 3, 6, 8, 12, and 24 hours postadministration. The collected whole blood samples (10 μl) were mixed with an equal volume of heparin solution in water (15 U/ml), frozen in liquid nitrogen, and stored at −70°C. […] The supernatant was collected, and the centrifugation step was repeated.
(§3) Pharmacokinetic parameters were calculated using Phoenix WinNonlin version 6.4 (Certara, St. Louis, MO).

[1] = for CYP1A2 Contribution: 5 mg/kg PO, This study; for AUCinf(obs) (% mean of C57BL/6J ± %S.D.) / CL/F(obs) (% mean of C57BL/6J ± %S.D.) / Cmax (% mean of C57BL/6J ± %S.D.) / V/F(obs) (% mean of C57BL/6J ± %S.D.) / V/F(obs): 5 mg/kg oral; for V/F(obs): mean ± S.D., n = 4
Method: as §2, §3

[2] = Caffeine systemic clearance from published mouse studies; type: in vivo
[3] = cited from earlier work
CYP1A2 = test system: CYP1A2; parameters: method as in Culm-Merdek et al., 2005; settings: healthy subjects; interaction with fluvoxamine; ref Culm-Merdek et al., 2005; cited from earlier work
[4] = Microsomal stability in mouse liver microsomes (WT, Cyp1a KO, hCYP1A1/1A2)
Method: (§1) The reaction was started by addition of 200 μl of NADPH to the remaining mixture of ramelteon with microsomes, and 100-μl aliquots were taken at 1, 2, 5, 10, 15, 20, and 30 minutes after the reaction start; mixed with an equal volume of ice-cold methanol containing the internal standard; incubated on ice for at least 20 minutes; and centrifuged for 15 minutes at 16,000 rcf and +4°C on Centrifuge 5415 R (Eppendorf, Hamburg, Germany). Control incubations were carried out without the cofactor or microsomes. The concentration of ramelteon in the supernatant was measured by high-performance liquid chromatography–tandem mass spectrometry (MS/MS). Chromatographic separation was performed on a Prodigy Phenyl-3 column (5 μm, 50 × 2.0 mm; Phenomenex) using an injection volume of 10 μl and a run time of 7 minutes. Mobile phase consisted of 0.1% solutions of formic acid in water (solvent A) and acetonitrile (solvent B). For elution, a linear gradient from 20% to 60% of solvent B in 4 minutes was used, followed by 3-minute equilibration at 20% B. The multiple reaction monitoring parameters for ramelteon and tacrine were 260.28, 199.2 (precursor ion) and 204.21, 171.11 (product ion), respectively. The concentrations of ramelteon were calculated from the calibration curve.

[5] = Microsomal stability in pooled human liver microsomes
Method: as §1

[6] = HRN (hepatic reductase null), mouse

Structure (SMILES): Cn1c(=O)c2c(ncn2C)n(C)c1=O [caffeine]
AUC(0-inf) (in vivo; C57BL/6J, mouse): 5700 ± 1260 ng·h/mL
CL/F (in vivo; C57BL/6J, mouse): 15.1 mL/min/kg
Cmax (in vivo; C57BL/6J, mouse): 2380 ± 628 ng/mL
half-life (in vivo; C57BL/6J, mouse): 0.94 ± 0.25 h
AUC(0-inf) (in vivo; Cyp1a KO, mouse): 17700 ± 2070 ng·h/mL
CL/F (in vivo; Cyp1a KO, mouse): 4.77 mL/min/kg
Cmax (in vivo; Cyp1a KO, mouse): 3990 ± 472 ng/mL
half-life (in vivo; Cyp1a KO, mouse): 2.39 ± 0.2 h
AUC(0-inf) (in vivo; [6]): 57300 ng·h/mL
CL/F (in vivo; [6]): 1.45 mL/min/kg
Cmax (in vivo; [6]): 3740 ± 794 ng/mL
half-life (in vivo; [6]): 8.4 ± 0.8 h
AUC(0-inf) (in vivo; hCYP1A1/1A2, mouse): 8400 ± 1800 ng·h/mL
CL/F (in vivo; hCYP1A1/1A2, mouse): 10.2 mL/min/kg
Cmax (in vivo; hCYP1A1/1A2, mouse): 3080 ± 194 ng/mL
half-life (in vivo; hCYP1A1/1A2, mouse): 1.3 ± 0.33 h
CYP1A2 Contribution ([1]; C57BL/6J (WT) mice, against Cyp1a KO clearance): 68%
AUCinf(obs) (% mean of C57BL/6J ± %S.D.) ([1]; C57BL/6J mice): 100 ± 22%
CL/F(obs) (% mean of C57BL/6J ± %S.D.) ([1]; C57BL/6J mice): 100 ± 19%
Cmax (% mean of C57BL/6J ± %S.D.) ([1]; C57BL/6J mice): 100 ± 26%
V/F(obs) (% mean of C57BL/6J ± %S.D.) ([1]; C57BL/6J mice): 100 ± 39%
V/F(obs) ([1]; C57BL/6J mice): 1.253 ± 0.494 L/kg
increase of AUC compared with WT mice ([1]; Cyp1a KO mice): ~3.1 fold
increase of elimination half-life compared with WT ([1]; Cyp1a KO mice): ~2.5 fold
CYP1A2 Contribution ([1]; Cyp1a KO mice): 0%
AUCinf(obs) (% mean of C57BL/6J ± %S.D.) ([1]; Cyp1a KO mice): 309 ± 36%
Cmax (% mean of C57BL/6J ± %S.D.) ([1]; Cyp1a KO mice): 167 ± 20%
V/F(obs) (% mean of C57BL/6J ± %S.D.) ([1]; Cyp1a KO mice): 79 ± 15%
CL/F(obs) (% mean of C57BL/6J ± %S.D.) ([1]; Cyp1a KO mice, 5 mg/kg): 32% and 32 ± 4%
V/F(obs) ([1]; Cyp1a KO mice): 0.992 ± 0.188 L/kg
increase of AUC compared with WT mice ([1]; HRN mice): ~10 fold
increase of elimination half-life compared with WT ([1]; HRN mice): ~8.9 fold
AUCinf(obs) (% mean of C57BL/6J ± %S.D.) ([1]; HRN mice): 1004 ± 45%
Cmax (% mean of C57BL/6J ± %S.D.) ([1]; HRN mice): 157 ± 33%
V/F(obs) (% mean of C57BL/6J ± %S.D.) ([1]; HRN mice): 84 ± 7%
CL/F(obs) (% mean of C57BL/6J ± %S.D.) ([1]; HRN mice, 5 mg/kg): 9.7 ± 0.42%
V/F(obs) ([1]; HRN mice): 1.057 ± 0.082 L/kg
increase of AUC compared with WT mice ([1]; hCYP1A1/1A2 mice): ~1.5 fold
CYP1A2 Contribution ([1]; hCYP1A1/1A2 mice, against Cyp1a KO clearance): 53%
AUCinf(obs) (% mean of C57BL/6J ± %S.D.) ([1]; hCYP1A1/1A2 mice): 147 ± 32%
Cmax (% mean of C57BL/6J ± %S.D.) ([1]; hCYP1A1/1A2 mice): 129 ± 8%
V/F(obs) (% mean of C57BL/6J ± %S.D.) ([1]; hCYP1A1/1A2 mice): 89 ± 4%
CL/F(obs) (% mean of C57BL/6J ± %S.D.) ([1]; hCYP1A1/1A2 mice, 5 mg/kg): 68% and 68 ± 13%
V/F(obs) ([1]; hCYP1A1/1A2 mice): 1.111 ± 0.055 L/kg
increase of elimination half-life compared with WT ([1]; hCYP1A1/1A2 mice, not statistically significant): ~1.4 fold
CYP1A2 Contribution ([2]; C57BL/6J mice, 5 mg/kg PO, against Cyp1a KO clearance, clearance from ref Li et al., 2017): 39%
CYP1A2 Contribution ([2]; C57BL/6J mice, 5 mg/kg PO, against Cyp1a KO clearance, clearance from ref Scheer et al., 2014): 61%
CYP1A2 Contribution ([2]; C57BL/6N mice, 2 mg/kg i.p., calculated against CYP1A2^−/− clearance, clearance from ref Buters et al., 1996): 88%
CYP1A2 Contribution ([2]; CD-1 mice, 20 mg/kg i.p., against Cyp1a KO clearance, clearance from ref Kaplan et al., 1990): 55%
CYP1A2 Contribution ([2]; CD-1 mice, 40 mg/kg i.p., against Cyp1a KO clearance, clearance from ref Kaplan et al., 1990): 25%
CYP1A2 Contribution ([2]; CD-COBS mice, 1 mg/kg i.v., against Cyp1a KO clearance, clearance from ref Walton et al., 2001): 61%
CYP1A2 Contribution ([2]; CYP1A2^−/− mice, 2 mg/kg i.p., clearance from ref Buters et al., 1996): 0%
CYP1A2 Contribution ([2]; Swiss mice, 20 mg/kg PO, against Cyp1a KO clearance, clearance from ref Samojlik et al., 2016): 8%
CYP1A2 Contribution ([2]; Swiss mice, 20 mg/kg i.p., against Cyp1a KO clearance, clearance from ref Samojlik et al., 2016): 28%
Clearance ([3]; C57BL/6J mice, 5 mg/kg PO, calculated from the mean pharmacokinetic profile in Fig. 2 of the publication, ref Li et al., 2017): 472^a ml/(h*kg)
Clearance ([3]; C57BL/6J mice, 5 mg/kg PO, ref Scheer et al., 2014): 726 mL/h/kg
Clearance ([3]; C57BL/6N mice, 2 mg/kg i.p., ref Buters et al., 1996): 2268 mL/h/kg
Clearance ([3]; CD-1 mice, 20 mg/kg i.p., ref Kaplan et al., 1990): 640 mL/h/kg
Clearance ([3]; CD-1 mice, 40 mg/kg i.p., ref Kaplan et al., 1990): 380 mL/h/kg
Clearance ([3]; CD-COBS mice, 1 mg/kg i.v., ref Walton et al., 2001): 732 mL/h/kg
Clearance ([3]; Swiss mice, 20 mg/kg PO, calculated by dividing dose by AUCinf, ref Samojlik et al., 2016): 311^b ml/(h*kg)
Clearance ([3]; Swiss mice, 20 mg/kg i.p., calculated by dividing dose by AUCinf, ref Samojlik et al., 2016): 398^b ml/(h*kg)
contribution of CYP1A2 to caffeine metabolism (CYP1A2): 93%

in vitro clearance relative to WT ([4]; Cyp1a KO mouse liver microsomes): ~83%
contribution of mouse Cyp1a2 to clearance ([4]; WT liver microsomes): 17%
fraction metabolized by Cyp1a2 ([4]; WT mice liver microsomes, eqs. 15 and 16): ~0.17
fraction metabolized by CYP1A2 ([4]; hCYP1A1/1A2 mice liver microsomes, eqs. 15 and 16): 0.56
in vitro clearance relative to WT ([4]; hCYP1A1/1A2 mouse liver microsomes): ~190%
contribution of CYP1A2 to clearance ([4]; liver microsomes of hCYP1A1/1A2 mice): 56%
in vitro clearance relative to WT [5]: ~70%
Structure (SMILES): CCC(=O)NCC[C@@H]1CCc2ccc3c(c21)CCO3 [ramelteon]
